Measurements as given in article PMC10689823, “Discovery of a Drug-like, Natural Product-Inspired DCAF11 Ligand Chemotype” (Nature Communications, 2023).
Where “and” joins values, the source holds several entries; their conditions need not be identical. Equal entries are not always repeated. One block for each molecule: values may come before it.

Columns and labels:
Type in all cases: cell-based
BRD2 [1] = molecular target: BRD2 (Homo sapiens, UniProt P25440); assay: BRD2 levels by Western blot in KBM7 cells (WT, DCAF11 knockout, DDB1 knockout); set-up: endogenous in cells; host or cells: KBM7 (WT, DCAF11 KO, DDB1 KO); settings: 4 h
Procedure: Cells were washed with PBS and lysed in lysis buffer (50 mM Tris-HCl, pH 7.4, 150 mM NaCl, 1% Triton X-100, 1% sodium deoxycholate, 0.1% SDS) with complete protease inhibitor cocktail (Roche, 11836170001) for 30 min on ice. For Ramos cells, cell pellets were lysed in lysis buffer (50 mM Tris-HCl, pH 8, 150 mM NaCl, 1% NP-40, 0.5% sodium deoxycholate) with complete protease inhibitor cocktail. After centrifugation at 16,000 x g, the supernatant was transferred into a new tube and the protein concentration was determined by DC protein assay (BIO-RAD, 5000116). Proteins were separated by SDS-PAGE and transferred to a PVDF membrane (Thermo scientific, 0.45 μm, 88518). For PDEδ, BRD2, GAPDH, BRD4, Vinculin and BTK, the membranes were blocked with Intercept® Blocking Buffer (LI-COR Biosciences, 927-70001) at room temperature for 1 h. The primary antibodies for these proteins were diluted with Intercept® Blocking Buffer (1:500 for PDEδ, 1:3000 for Vinculin, and 1:1000 for other proteins) and incubated with the membranes overnight at 4 °C. Membranes were washed with PBS + 0.1% Tween 20 (PBS-T) five times and incubated with secondary antibodies conjugated to IRDye® Infrared Fluorescent Dyes (1:5000, LI-COR Biosciences) at room temperature for 1 h with protection from light. After washing the membrane, signals were visualized using the ChemiDoc MP Imaging System (BIO-RAD Laboratories). For detection of LC3B, BRD3, BLK, DCAF11, DDB1 RBX1, FIP200, V5- and FLAG-Tag the membranes were blocked with 5% milk in PBS-T at room temperature for 1 h. The primary antibodies for these proteins were diluted in 5% milk in PBS-T buffer (1:200 for BRD3, 1:1000 for other proteins) and incubated with the membranes overnight at 4 °C. Membranes were washed with PBS-T five times and incubated with HRP secondary antibodies (1:1500) at room temperature for 1 h. After washing the membrane, protein detection was performed using Western blotting detection reagent (Thermo Scientific, 34095) and the ChemiDoc MP Imaging System (BIO-RAD). Relative band intensities were quantified using Image Lab (BIO-RAD).
DCAF11- or FIP200 (RB1CC1)-targeting sgRNAs were lentivirally packaged using PEI transfection of Lenti-X cells. The viral supernatant was harvested after 72 h, cleared of cellular debris by filtration through a 0.45-µm PES filter and stored in aliquots at −80 °C. The appropriate amount of viral supernatant was transduced into KBM7 cells (1 × 10^6 cells/mL) via spinfection (2000 rpm, 1 h, 37 °C) with polybrene (8 µg/mL). Two days post transduction, the cells were selected with puromycin (1 µg/mL) for a total of 5 days, after which the knockout pools were validated via western blotting.

Jurkat cells = assay: Cell viability assay (CellTiter-Glo) in Jurkat cells; settings: for GI50: Homo sapiens; for GI50 / Relative cell viability (%): Jurkat cells, 72 h; for Relative cell viability (%): Fig. 4k; for Cell viability (%) relative to DMSO: individual replicates, Supplementary Fig. 7g
Procedure: (§1) Jurkat cells (3 × 10^3) and Hep G2 cells (3.5 × 10^3) were seeded in 96-well plates in 100 μL culture medium. Cells were treated with compounds dissolved in 50 μl medium at the indicated concentration for 72 h, at the same time, one plate of cells without compounds treatment was used for the cell count at time zero. After adding 40 μl of CellTiter-Glo® reagent (Promega, G7571) to each well for 10 min at room temperature, the luminescence was measured on a Spark® Multimode Microplate Reader (Tecan). The data was analyzed by the GraphPad Prism 9.0.

[2] = as above; settings: human, Jurkat cells; for viability at 72 h, 10 nmol/L: concentration 10 nmol/L; for viability at 72 h, 100 nmol/L: concentration 100 nmol/L; for viability at 72 h, 300 nmol/L: concentration 300 nmol/L; for viability at 72 h, 1000 nmol/L: concentration 1000 nmol/L; for viability at 72 h, 3000 nmol/L: concentration 3000 nmol/L; for viability at 72 h, 10000 nmol/L: concentration 10000 nmol/L; for viability at 72 h, 0.01 µM: 10 nM; for viability at 72 h, 0.1 µM: 100 nM; for viability at 72 h, 1 µM: 1000 nM; for viability at 72 h, 3 µM: 3000 nM
Procedure: as §1

caspase-3/7 activity = assay: Caspase-3/7 Activity Assay in Jurkat cells; settings: 18 h, Fig. 4l
Procedure: Jurkat cells (3 × 10^3) were seeded in 96-well plates in 25 μl culture medium. Cells were treated with compounds dissolved in 25 μl medium at the indicated concentration for 18 h. After adding 50 μl of Caspase-Glo® 3/7 Reagent (Promega, G8091) to each well for 30 min at room temperature, the luminescence was measured on a Spark® Multimode Microplate Reader (Tecan). The data was analyzed by the GraphPad Prism 9.0.

BRD2 [3] = assay: In-Cell Western for BRD2 levels in Hep G2 cells; settings: Hep G2 cells; 4 h
Procedure: Hep G2 cells were seeded in 96-well plates and incubated for 24 h. Compounds were added for the indicated time at the indicated concentration. Cells were then washed once with PBS and fixed with 4% paraformaldehyde for 30 min at room temperature. The fixed cells were permeabilized with 0.5 % Triton-X100 for 15 min followed by block with Intercept® Blocking Buffer (LI-COR Biosciences, 927-70001) for 1 h at room temperature. Primary antibodies for BRD2 (1:800) and Vinculin (1:2000) were diluted with LI-COR buffer and incubated with the cells at 4 °C overnight. Cells were washed with PBS-T, and the secondary antibodies conjugated to IRDye (1:1000, LI-COR Biosciences) were added to the cells for 1 h at room temperature. After washing the cells, the signal was recorded with the Odyssey® CLx Infrared Imaging System (LI-COR Biosciences) and the protein levels were analyzed by Image Studio (LI-COR Biosciences). BRD2 protein levels were normalized to the levels of reference protein vinculin.

[4] = individual replicates, Supplementary Fig. 7g, read-out: Cell viability (%) relative to DMSO
[5] = 72 h, Fig. 4k, read-out: Relative cell viability (%)

Chain of BRD2 (Homo sapiens, UniProt P25440) (P25440 whole entry): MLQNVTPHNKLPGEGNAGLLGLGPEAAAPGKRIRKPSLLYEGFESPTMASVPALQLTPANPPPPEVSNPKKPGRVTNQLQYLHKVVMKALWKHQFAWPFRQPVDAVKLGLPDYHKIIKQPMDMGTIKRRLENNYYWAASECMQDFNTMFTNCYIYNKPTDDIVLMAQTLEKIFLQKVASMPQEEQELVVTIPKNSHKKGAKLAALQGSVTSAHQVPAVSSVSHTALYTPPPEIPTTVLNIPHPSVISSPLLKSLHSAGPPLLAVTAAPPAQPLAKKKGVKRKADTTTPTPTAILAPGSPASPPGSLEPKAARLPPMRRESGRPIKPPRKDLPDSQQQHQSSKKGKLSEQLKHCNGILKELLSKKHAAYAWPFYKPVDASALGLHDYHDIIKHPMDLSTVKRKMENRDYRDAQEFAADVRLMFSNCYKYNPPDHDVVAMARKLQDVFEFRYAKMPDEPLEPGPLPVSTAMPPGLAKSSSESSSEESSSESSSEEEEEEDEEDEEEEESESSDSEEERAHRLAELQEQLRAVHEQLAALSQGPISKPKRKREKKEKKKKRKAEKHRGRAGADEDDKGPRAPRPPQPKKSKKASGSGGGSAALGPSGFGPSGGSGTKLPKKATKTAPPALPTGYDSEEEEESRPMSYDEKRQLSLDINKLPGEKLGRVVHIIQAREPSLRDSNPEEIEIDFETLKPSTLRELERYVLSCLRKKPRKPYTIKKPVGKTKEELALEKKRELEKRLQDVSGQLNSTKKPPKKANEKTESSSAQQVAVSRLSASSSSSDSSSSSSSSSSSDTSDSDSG

BRD2 degradation in KBM7 cells (BRD2 [1]): did not induce degradation of BRD2
GI50 (Jurkat cells): 1000 to 1200 nM
Structure (SMILES): Cc1sc2c(c1C)C(c1ccc(Cl)cc1)=NC(CC(=O)NCCOCCOCCOCCOc1c(Br)cc(CC3C(=O)Nc4ccc(Br)cc43)cc1Br)c1nnc(C)n1-2 (stereo not drawn) [Compound 17]
Relative cell viability (%) (Jurkat cells; 10 nM, 0.01 µM): 113.554% and 104.708%
Relative cell viability (%) (Jurkat cells; 30 nM, 0.03 µM): 107.162% and 119.822% and 97.6289%
Relative cell viability (%) (Jurkat cells; 100 nM, 0.1 µM): 93.2408% and 94.967%
Relative cell viability (%) (Jurkat cells; 300 nM, 0.3 µM): 80.2996% and 90.3554% and 69.1714%
Relative cell viability (%) (Jurkat cells; 1000 nM, 1 µM): 51.0815% and 43.0724%
Relative cell viability (%) (Jurkat cells; 3000 nM, 3 µM): 24.9133% and 20.9046%
Relative cell viability (%) (Jurkat cells; 10000 nM, 10 µM): -0.06982% and 0.1224% and 1.03%
Relative cell viability (%) (Jurkat cells; 30000 nM, 30 µM): -0.1785% and -0.1531% and -0.21%
Cell viability (%) relative to DMSO (Jurkat cells; concentration 10 nmol/L): 97.5079% and 115.29%
Cell viability (%) relative to DMSO (Jurkat cells; concentration 30 nmol/L): 100.694% and 103.862%
Cell viability (%) relative to DMSO (Jurkat cells; concentration 100 nmol/L): 98.8981% and 102.192%
Cell viability (%) relative to DMSO (Jurkat cells; concentration 300 nmol/L): 95.2575% and 90.332%
Cell viability (%) relative to DMSO (Jurkat cells; concentration 1000 nmol/L): 81.9098% and 92.9141%
Cell viability (%) relative to DMSO (Jurkat cells; concentration 3000 nmol/L): 61.001% and 70.9093%
Cell viability (%) relative to DMSO (Jurkat cells; concentration 10000 nmol/L): 25.3619% and 36.1626%
Cell viability (%) relative to DMSO (Jurkat cells; concentration 30000 nmol/L): 28.6334% and 13.2236% and 16.0233%
viability at 72 h, 10 nmol/L [2, 4]: 104%
viability at 72 h, 30 nmol/L ([2]; concentration 30 nmol/L, individual replicates, Supplementary Fig. 7g, read-out: Cell viability (%) relative to DMSO): 101%
viability at 72 h, 100 nmol/L [2, 4]: 100%
viability at 72 h, 300 nmol/L [2, 4]: 92.8%
viability at 72 h, 1000 nmol/L [2, 4]: 80.1%
viability at 72 h, 3000 nmol/L [2, 4]: 58.9%
viability at 72 h, 10000 nmol/L [2, 4]: 38.2%
viability at 72 h, 0.01 µM [2, 5]: 120%
viability at 72 h, 0.1 µM [2, 5]: 104%
viability at 72 h, 1 µM [2, 5]: 54.7%
viability at 72 h, 3 µM [2, 5]: 23%
Caspase 3/7 activity (fold change) (caspase-3/7 activity; 0.3 μM): 1.197 fold change and 0.791 fold change and 0.9918 fold change
Caspase 3/7 activity (fold change) (caspase-3/7 activity; 1 μM): 1.23 fold change and 0.8887 fold change and 1.1561 fold change

BRD2 degradation in KBM7 cells (BRD2 [1]): did not induce degradation of BRD2
GI50 (Jurkat cells): 1000 to 1200 nM
Structure (SMILES): Cc1sc2c(c1C)C(c1ccc(Cl)cc1)=NC(CC(=O)NCCOCCOCCOCCOCCNC(=O)COc1c(Br)cc(CC3C(=O)Nc4ccc(Br)cc43)cc1Br)c1nnc(C)n1-2 (stereo not drawn) [Compound 16]
Relative cell viability (%) (Jurkat cells; 10 nM, 0.01 µM): 112.636% and 96.9495%
Relative cell viability (%) (Jurkat cells; 30 nM, 0.03 µM): 115.001% and 96.0444%
Relative cell viability (%) (Jurkat cells; 100 nM, 0.1 µM): 99.9011% and 81.8303%
Relative cell viability (%) (Jurkat cells; 300 nM, 0.3 µM): 80.1727% and 96.1576% and 71.4791%
Relative cell viability (%) (Jurkat cells; 1000 nM, 1 µM): 60.9647% and 43.3109%
Relative cell viability (%) (Jurkat cells; 3000 nM, 3 µM): 18.6473% and 16.4385%
Relative cell viability (%) (Jurkat cells; 10000 nM, 10 µM): -0.2254% and 0.02364% and 0.3624%
Relative cell viability (%) (Jurkat cells; 30000 nM, 30 µM): -0.3131% and -0.2888% and -0.253%
Cell viability (%) relative to DMSO (Jurkat cells; concentration 10 nmol/L): 99.6715% and 109.515%
Cell viability (%) relative to DMSO (Jurkat cells; concentration 30 nmol/L): 97.9616% and 103.22% and 119.751%
Cell viability (%) relative to DMSO (Jurkat cells; concentration 100 nmol/L): 100.592% and 111.273%
Cell viability (%) relative to DMSO (Jurkat cells; concentration 300 nmol/L): 96.8221% and 108.638%
Cell viability (%) relative to DMSO (Jurkat cells; concentration 1000 nmol/L): 85.5266% and 95.8957%
Cell viability (%) relative to DMSO (Jurkat cells; concentration 3000 nmol/L): 59.9059% and 72.5452%
Cell viability (%) relative to DMSO (Jurkat cells; concentration 10000 nmol/L): 8.512% and 16.0463%
Cell viability (%) relative to DMSO (Jurkat cells; concentration 30000 nmol/L): -0.0717% and -0.2673% and -0.08298%
viability at 72 h, 10 nmol/L [2, 4]: 95.2%
viability at 72 h, 100 nmol/L [2, 4]: 99.6%
viability at 72 h, 300 nmol/L [2, 4]: 96.7%
viability at 72 h, 1000 nmol/L [2, 4]: 82.7%
viability at 72 h, 3000 nmol/L [2, 4]: 60%
viability at 72 h, 10000 nmol/L [2, 4]: 8.63%
viability at 72 h, 0.01 µM [2, 5]: 97.2%
viability at 72 h, 0.03 µM ([2]; 72 h, 30 nM, Fig. 4k, read-out: Relative cell viability (%)): 102%
viability at 72 h, 0.1 µM [2, 5]: 92.6%
viability at 72 h, 1 µM [2, 5]: 49.7%
viability at 72 h, 3 µM [2, 5]: 16.6%
Caspase 3/7 activity (fold change) (caspase-3/7 activity; 0.3 μM): 1.231 fold change and 1.654 fold change and 1.232 fold change
Caspase 3/7 activity (fold change) (caspase-3/7 activity; 1 μM): 1.2 fold change and 1.194 fold change and 1.182 fold change
BRD2 depletion by In-Cell Western (BRD2 [3]): did not induce in cellulo degradation
